Source: patent publication US8168651B2, “Protein kinase modulators” (Cylene Pharmaceuticals, Inc., priority 2008, dated 2012)

Key:
Experiment in all cases: Standardized radiometric kinase assays, percentage of activity at 0.5 μM;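 further: Read-out is ³³P-labelled substrate protein phosphorylated by each kinase, captured on filters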
[1] = biological target: each individual kinase of the panel (Homo sapiens, UniProt O75582)
[2] = biological target: each individual kinase of the panel (Homo sapiens, UniProt P53355)
[3] = biological target: each individual kinase of the panel (Homo sapiens, UniProt Q9HBY8)
[4] = biological target: each individual kinase of the panel (Homo sapiens, UniProt Q15139)
[5] = biological target: each individual kinase of the panel (Homo sapiens, UniProt P53779)
[6] = biological target: each individual kinase of the panel (Mus musculus, UniProt P47809)
Sequence of each individual kinase of the panel (Mus musculus, UniProt P47809) (P47809 2-397 limits assumed): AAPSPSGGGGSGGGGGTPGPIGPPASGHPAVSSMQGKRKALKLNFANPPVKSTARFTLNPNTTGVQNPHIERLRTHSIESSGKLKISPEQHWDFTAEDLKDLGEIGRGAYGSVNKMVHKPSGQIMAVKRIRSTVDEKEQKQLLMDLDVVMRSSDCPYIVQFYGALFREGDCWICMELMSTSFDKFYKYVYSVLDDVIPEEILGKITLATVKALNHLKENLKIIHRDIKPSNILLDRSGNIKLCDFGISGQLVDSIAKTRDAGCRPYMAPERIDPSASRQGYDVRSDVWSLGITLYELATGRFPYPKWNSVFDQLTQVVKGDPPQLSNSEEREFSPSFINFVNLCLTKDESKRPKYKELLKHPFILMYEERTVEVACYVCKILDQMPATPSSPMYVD

[7] = biological target: each individual kinase of the panel (Homo sapiens, UniProt P53778)
[8] = biological target: each individual kinase of the panel (Homo sapiens, UniProt P10721, V654A)
Sequence of each individual kinase of the panel (Homo sapiens, UniProt P10721, V654A) (P10721 26-976 V654A limits assumed): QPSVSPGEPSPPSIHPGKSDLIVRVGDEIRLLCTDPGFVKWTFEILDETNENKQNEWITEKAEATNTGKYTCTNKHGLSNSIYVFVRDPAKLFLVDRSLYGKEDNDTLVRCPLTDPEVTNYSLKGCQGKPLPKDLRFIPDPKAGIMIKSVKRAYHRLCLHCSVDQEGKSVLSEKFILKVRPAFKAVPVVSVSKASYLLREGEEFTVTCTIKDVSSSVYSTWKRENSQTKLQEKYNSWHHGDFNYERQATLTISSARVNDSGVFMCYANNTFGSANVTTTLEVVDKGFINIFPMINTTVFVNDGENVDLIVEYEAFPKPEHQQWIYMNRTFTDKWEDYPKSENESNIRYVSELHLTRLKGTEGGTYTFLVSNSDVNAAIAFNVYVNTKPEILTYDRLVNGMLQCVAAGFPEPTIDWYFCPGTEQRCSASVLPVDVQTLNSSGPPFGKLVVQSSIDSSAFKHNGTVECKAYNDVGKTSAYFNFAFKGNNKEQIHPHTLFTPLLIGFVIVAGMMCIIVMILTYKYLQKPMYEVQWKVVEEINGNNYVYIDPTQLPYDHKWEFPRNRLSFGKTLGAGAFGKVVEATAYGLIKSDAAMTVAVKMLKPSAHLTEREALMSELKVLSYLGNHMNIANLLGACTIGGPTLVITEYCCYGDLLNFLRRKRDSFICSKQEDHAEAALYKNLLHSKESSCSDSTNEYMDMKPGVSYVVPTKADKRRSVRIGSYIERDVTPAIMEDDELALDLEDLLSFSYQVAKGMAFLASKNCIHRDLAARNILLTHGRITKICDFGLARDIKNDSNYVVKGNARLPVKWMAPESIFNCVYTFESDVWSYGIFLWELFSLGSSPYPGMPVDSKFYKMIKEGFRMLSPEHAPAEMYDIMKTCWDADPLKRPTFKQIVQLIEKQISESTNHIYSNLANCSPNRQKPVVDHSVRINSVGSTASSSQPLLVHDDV

[9] = biological target: each individual kinase of the panel (Homo sapiens, UniProt P29323)
Sequence of each individual kinase of the panel (Homo sapiens, UniProt P29323) (P29323 19-1055 limits assumed): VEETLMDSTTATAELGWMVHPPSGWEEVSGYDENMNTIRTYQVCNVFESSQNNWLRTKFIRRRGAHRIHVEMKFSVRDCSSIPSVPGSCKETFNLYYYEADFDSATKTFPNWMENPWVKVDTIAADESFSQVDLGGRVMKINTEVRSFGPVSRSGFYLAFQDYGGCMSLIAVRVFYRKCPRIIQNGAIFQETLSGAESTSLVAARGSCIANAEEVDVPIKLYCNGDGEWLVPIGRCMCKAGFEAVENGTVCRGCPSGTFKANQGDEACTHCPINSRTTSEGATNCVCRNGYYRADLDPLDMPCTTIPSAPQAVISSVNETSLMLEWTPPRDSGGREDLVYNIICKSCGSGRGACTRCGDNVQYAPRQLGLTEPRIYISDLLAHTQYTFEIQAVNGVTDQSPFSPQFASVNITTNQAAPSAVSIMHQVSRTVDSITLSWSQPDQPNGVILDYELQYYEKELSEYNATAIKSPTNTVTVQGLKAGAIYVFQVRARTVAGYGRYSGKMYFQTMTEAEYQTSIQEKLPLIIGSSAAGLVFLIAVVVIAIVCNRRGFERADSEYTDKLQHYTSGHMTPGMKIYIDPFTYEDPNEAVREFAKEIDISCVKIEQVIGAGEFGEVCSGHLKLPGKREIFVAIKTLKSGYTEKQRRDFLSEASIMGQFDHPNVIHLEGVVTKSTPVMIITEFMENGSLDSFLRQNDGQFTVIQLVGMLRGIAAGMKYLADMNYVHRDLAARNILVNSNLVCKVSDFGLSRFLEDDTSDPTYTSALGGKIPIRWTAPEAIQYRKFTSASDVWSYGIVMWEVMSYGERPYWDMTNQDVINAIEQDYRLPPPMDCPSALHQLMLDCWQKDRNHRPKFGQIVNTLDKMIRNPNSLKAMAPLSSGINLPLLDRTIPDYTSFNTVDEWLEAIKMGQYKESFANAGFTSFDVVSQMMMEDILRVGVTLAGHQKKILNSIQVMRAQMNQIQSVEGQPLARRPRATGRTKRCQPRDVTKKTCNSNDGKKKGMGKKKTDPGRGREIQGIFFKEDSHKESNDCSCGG

[10] = biological target: each individual kinase of the panel (Homo sapiens, UniProt Q16566)
[11] = biological target: each individual kinase of the panel (Homo sapiens, UniProt P42685)
[12] = biological target: each individual kinase of the panel (Homo sapiens, UniProt P14616)
Sequence of each individual kinase of the panel (Homo sapiens, UniProt P14616) (P14616 27-742 limits assumed): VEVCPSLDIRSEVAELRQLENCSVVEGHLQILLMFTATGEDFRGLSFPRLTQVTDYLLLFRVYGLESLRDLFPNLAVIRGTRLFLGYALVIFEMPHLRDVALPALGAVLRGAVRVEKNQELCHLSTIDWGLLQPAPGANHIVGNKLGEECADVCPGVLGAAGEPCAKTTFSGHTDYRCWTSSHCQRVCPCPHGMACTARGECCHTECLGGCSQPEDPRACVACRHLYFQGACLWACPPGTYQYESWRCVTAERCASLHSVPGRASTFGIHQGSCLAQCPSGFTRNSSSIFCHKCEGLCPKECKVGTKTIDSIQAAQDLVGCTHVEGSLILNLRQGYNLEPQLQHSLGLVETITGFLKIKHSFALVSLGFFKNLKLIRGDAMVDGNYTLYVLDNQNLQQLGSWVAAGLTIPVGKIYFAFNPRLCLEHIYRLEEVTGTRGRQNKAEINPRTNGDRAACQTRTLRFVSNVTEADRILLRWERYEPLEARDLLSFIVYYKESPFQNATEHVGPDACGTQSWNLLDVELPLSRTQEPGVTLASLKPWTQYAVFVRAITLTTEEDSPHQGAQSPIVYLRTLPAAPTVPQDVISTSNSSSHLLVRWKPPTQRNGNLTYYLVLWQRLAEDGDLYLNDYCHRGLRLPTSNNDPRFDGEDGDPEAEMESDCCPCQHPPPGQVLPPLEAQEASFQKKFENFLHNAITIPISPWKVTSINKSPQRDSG
Sequence of each individual kinase of the panel (Homo sapiens, UniProt P14616) (P14616 747-1297 limits assumed): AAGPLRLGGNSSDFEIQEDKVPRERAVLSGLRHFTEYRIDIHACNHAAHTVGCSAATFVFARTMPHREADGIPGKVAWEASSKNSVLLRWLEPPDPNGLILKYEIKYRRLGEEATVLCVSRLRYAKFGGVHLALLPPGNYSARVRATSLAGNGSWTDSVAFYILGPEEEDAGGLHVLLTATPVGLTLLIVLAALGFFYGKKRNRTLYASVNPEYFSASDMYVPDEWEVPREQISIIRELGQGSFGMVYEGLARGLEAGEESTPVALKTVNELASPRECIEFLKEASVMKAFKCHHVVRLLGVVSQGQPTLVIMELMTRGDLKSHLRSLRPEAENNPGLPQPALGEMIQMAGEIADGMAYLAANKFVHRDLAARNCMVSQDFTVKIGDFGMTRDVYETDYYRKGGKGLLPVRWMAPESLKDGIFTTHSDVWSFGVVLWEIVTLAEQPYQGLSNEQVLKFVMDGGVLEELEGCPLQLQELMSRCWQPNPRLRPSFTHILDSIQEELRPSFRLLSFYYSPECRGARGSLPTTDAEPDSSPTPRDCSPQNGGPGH

[13] = biological target: each individual kinase of the panel (Homo sapiens, UniProt Q9UHD2)
[14] = biological target: each individual kinase of the panel (Homo sapiens, UniProt Q9HC98)
[15] = biological target: each individual kinase of the panel (Homo sapiens, UniProt P49761)
[16] = biological target: each individual kinase of the panel (Homo sapiens, UniProt O15264)
[17] = biological target: each individual kinase of the panel (Homo sapiens, UniProt Q9P286)
[18] = biological target: each individual kinase of the panel (Homo sapiens, UniProt Q9UBE8)
[19] = biological target: each individual kinase of the panel (Homo sapiens, UniProt Q9Y5S2)
[20] = biological target: each individual kinase of the panel (Homo sapiens, UniProt Q9UL54)
[21] = biological target: each individual kinase of the panel (Homo sapiens, UniProt Q15831)
[22] = biological target: each individual kinase of the panel (Homo sapiens, UniProt Q15759)
[23] = biological target: each individual kinase of the panel (Homo sapiens, UniProt Q9Y243)
Sequence of each individual kinase of the panel (Homo sapiens, UniProt Q9Y243) (Q9Y243 2-479 limits assumed): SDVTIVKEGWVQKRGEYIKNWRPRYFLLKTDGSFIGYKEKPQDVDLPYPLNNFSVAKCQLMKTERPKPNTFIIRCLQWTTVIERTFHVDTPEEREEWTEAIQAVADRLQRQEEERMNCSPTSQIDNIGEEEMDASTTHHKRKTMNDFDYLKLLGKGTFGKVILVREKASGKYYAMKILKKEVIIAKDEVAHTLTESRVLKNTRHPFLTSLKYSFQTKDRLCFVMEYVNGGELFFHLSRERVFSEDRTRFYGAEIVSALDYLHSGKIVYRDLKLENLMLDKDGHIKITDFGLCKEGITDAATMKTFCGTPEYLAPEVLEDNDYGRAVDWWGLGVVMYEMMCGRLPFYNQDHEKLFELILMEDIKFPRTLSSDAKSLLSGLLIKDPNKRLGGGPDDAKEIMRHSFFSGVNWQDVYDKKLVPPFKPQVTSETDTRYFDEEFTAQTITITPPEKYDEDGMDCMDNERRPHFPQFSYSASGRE

[24] = biological target: each individual kinase of the panel (Homo sapiens, UniProt Q8IWQ3)
[25] = biological target: each individual kinase of the panel (Homo sapiens, UniProt P00519, T315I)
[26] = biological target: each individual kinase of the panel (Homo sapiens, UniProt P43405)
[27] = biological target: each individual kinase of the panel (Homo sapiens, UniProt Q13188)
[28] = biological target: each individual kinase of the panel (Homo sapiens, UniProt P51617)
[29] = biological target: each individual kinase of the panel (Homo sapiens, UniProt Q8TDX7)
[30] = biological target: each individual kinase of the panel (Homo sapiens, UniProt P51817)
[31] = biological target: each individual kinase of the panel (Homo sapiens, UniProt Q16539, T106M)
Sequence of each individual kinase of the panel (Homo sapiens, UniProt Q16539, T106M) (Q16539 2-360 T106M limits assumed): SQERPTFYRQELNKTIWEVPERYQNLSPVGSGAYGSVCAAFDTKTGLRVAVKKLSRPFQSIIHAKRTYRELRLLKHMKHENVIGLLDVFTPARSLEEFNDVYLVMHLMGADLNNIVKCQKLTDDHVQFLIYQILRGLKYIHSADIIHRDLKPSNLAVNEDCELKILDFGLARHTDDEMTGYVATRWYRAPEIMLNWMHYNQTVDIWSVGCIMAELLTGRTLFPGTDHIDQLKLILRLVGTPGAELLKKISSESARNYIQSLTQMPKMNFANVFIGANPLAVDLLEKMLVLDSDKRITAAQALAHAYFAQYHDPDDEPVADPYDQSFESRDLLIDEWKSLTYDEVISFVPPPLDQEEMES

C#Cc1cccc(Nc2nc3cc(C(=O)O)ccc3c3cncnc23)c1 [drawing 1135]
MSK1 percentage of activity [1]: 19%
DAPK1 percentage of activity [2]: 58%
SGK2 percentage of activity [3]: 2%
PRKCM percentage of activity [4]: −4%
JNK3 percentage of activity [5]: −3%
MKK4(m) percentage of activity [6]: −2%
p38-gamma percentage of activity [7]: 12%
cKit(V654A) percentage of activity [8]: 8%
EPHB2 percentage of activity [9]: 13%
CAMK4 percentage of activity [10]: 2%
FRK percentage of activity [11]: 3%
INSRR percentage of activity [12]: −21%
TBK1 percentage of activity [13]: 70%
NEK6 percentage of activity [14]: −3%
CLK3 percentage of activity [15]: 83%
p38-delta percentage of activity [16]: −1%
PAK5 percentage of activity [17]: −8%
NLK percentage of activity [18]: 3%
MRCKB percentage of activity [19]: 0%
TAO2 percentage of activity [20]: 3%
LKB1 percentage of activity [21]: −2%
p38-beta percentage of activity [22]: 5%
AKT3 percentage of activity [23]: 0%
BRSK2 percentage of activity [24]: 7%
ABL1(T3151) percentage of activity [25]: −7%
SYK percentage of activity [26]: −9%
MST2 percentage of activity [27]: −6%
IRAK1 percentage of activity [28]: 4%
NEK7 percentage of activity [29]: −14%
PRKX percentage of activity [30]: 3%
p38-alpha (T106M) percentage of activity [31]: −8%
